The text below walks through data of paper PMC10855908 (International Journal of Molecular Sciences, 2024).

The subject of test [1] is Campylobacter coli ATCC 33559. The settings on record: ATCC 33559, 24 h.
A further test relates to C. coli ATCC33559. The settings on record: ATCC33559, 24 h, 200 μg/mL.
For test [2], the system named is C. perfringens MLG3406. The class given is cell-based, Clostridium perfringens.
Test [3] concerns C. perfringens MLG2314. It counts as cell-based, Clostridium perfringens.
Test [4] has as its system C. perfringens MLG4201. The class given is cell-based, Clostridium perfringens.
Test [5] has as its system C. perfringens MLG2203. It counts as cell-based, Clostridium perfringens.
Test [6] deals with C. perfringens MLG5719. It counts as cell-based, Clostridium perfringens.
Test [7] concerns C. perfringens MLG4206. It counts as cell-based, Clostridium perfringens.
For test [8], the system named is C. perfringens MLG4206. The class given is cell-based, Clostridium perfringens. This is another data set of the same source.
Test [9] relates to C. perfringens MLG7307. It counts as cell-based, Clostridium perfringens.
Test [10] has as its system C. perfringens MLG0618. The class given is cell-based, Clostridium perfringens.
Test [11] concerns C. perfringens MLG4201. The class given is cell-based, Clostridium perfringens. The source holds these as a separate data set.
The subject of test [12] is C. perfringens MLG1619. The class given is cell-based, Clostridium perfringens.
Test [13] concerns C. perfringens MLG7309. The class given is cell-based, Clostridium perfringens.
In test [14] the test system is C. perfringens MLG0712. It counts as cell-based, Clostridium perfringens.
Test [15] deals with C. perfringens MLG2919. The class given is cell-based, Clostridium perfringens.
Test [16] has as its system C. perfringens MLG6907. It counts as cell-based, Clostridium perfringens.
Test [17] relates to C. perfringens MLG0418. The class given is cell-based, Clostridium perfringens.
Test [18] deals with C. perfringens MLG0712. The class given is cell-based, Clostridium perfringens. This is another data set of the same source.
For test [19], the system named is C. perfringens MLG1819. It counts as cell-based, Clostridium perfringens.
Test [20] relates to C. perfringens MLG3111. The class given is cell-based, Clostridium perfringens.
The test system of test [21] is C. perfringens MLG2203. The class given is cell-based, Clostridium perfringens. This is another data set of the same source.
Test [22] deals with C. perfringens MLG1108. It counts as cell-based, Clostridium perfringens.
For test [23], the system named is C. perfringens MLG5806. It counts as cell-based, Clostridium perfringens.
Test [24] has as its system C. perfringens MLG7307. It counts as cell-based, Clostridium perfringens. This is another data set of the same source.
The test system of test [25] is C. perfringens MLG7309. The class given is cell-based, Clostridium perfringens. The source holds these as a separate data set.
The subject of test [26] is C. perfringens MLG7009. It counts as cell-based, Clostridium perfringens.
Test [27] has as its system C. perfringens MLG2314. It counts as cell-based, Clostridium perfringens. The source holds these as a separate data set.
Test [28] deals with C. perfringens MLG5719. The class given is cell-based, Clostridium perfringens. The source holds these as a separate data set.
The subject of test [29] is C. perfringens MLG1108. It counts as cell-based, Clostridium perfringens. This is another data set of the same source.
The subject of test [30] is C. perfringens MLG5806. The class given is cell-based, Clostridium perfringens. This is another data set of the same source.
The test system of test [31] is C. perfringens MLG1819. The class given is cell-based, Clostridium perfringens. The source holds these as a separate data set.
The test system of test [32] is C. perfringens MLG1619. The class given is cell-based, Clostridium perfringens. This is another data set of the same source.
Test [33] has as its system C. perfringens MLG0418. It counts as cell-based, Clostridium perfringens. This is another data set of the same source.
The subject of test [34] is C. perfringens MLG7009. The class given is cell-based, Clostridium perfringens. This is another data set of the same source.
Test [35] has as its system C. perfringens MLG6907. The class given is cell-based, Clostridium perfringens. This is another data set of the same source.
Test [36] concerns C. perfringens MLG3406. It counts as cell-based, Clostridium perfringens. The source holds these as a separate data set.
The test system of test [37] is C. perfringens MLG2919. The class given is cell-based, Clostridium perfringens. This is another data set of the same source.
In test [38] the test system is C. perfringens MLG7814. It counts as cell-based, Clostridium perfringens.
In test [39] the test system is C. perfringens MLG3111. It counts as cell-based, Clostridium perfringens. This is another data set of the same source.
In test [40] the test system is C. perfringens MLG0618. It counts as cell-based, Clostridium perfringens. This is another data set of the same source.
Test [41] relates to C. perfringens MLG7814. It counts as cell-based, Clostridium perfringens. The source holds these as a separate data set.

No end group written: not given here.

On to “MGAIAKLVAKFGWPIVKKYYKQIMQFIGEGWAINKIIEWIKKHI [Enterocin L50A]”, for which the MIC in test [1] came to 25 mg/L. This substance also registered an Inhibition halos in the test on C. coli ATCC33559 of 10 mm.
Regarding “Nisin (ITSISLCTPGCKTGALMGCNMKTATCHCSIHVSK; thioether (positions not given here); not fully specified (some residues, bridges); UniProt P13068 24-57, looked up)”, the MIC in the test with C. perfringens MLG3406 [2] was 3.12 mg/L; in the test with C. perfringens MLG2314 [3], 1.56 mg/L; with C. perfringens MLG2203 [5], less than 0.09 mg/L; against C. perfringens MLG4206 [7], 1.56 mg/L; against C. perfringens MLG0618 [10] it was 0.39 mg/L; in the test with C. perfringens MLG4201 [11], 0.78 mg/L. In addition, the minimal inhibitory concentration (MIC) came to 0.19 mg/L against C. perfringens MLG1619 [12]; 0.39 mg/L in the test on C. perfringens MLG0712 [14]; 1.56 mg/L against C. perfringens MLG2919 [15]; 1.56 mg/L against C. perfringens MLG6907 [16]; 0.39 mg/L in the test on C. perfringens MLG1819 [19]; 0.39 mg/L against C. perfringens MLG3111 [20]. Besides, the minimum inhibitory concentration (MIC) with C. perfringens MLG1108 [22] was found to be 0.78 mg/L; in the test on C. perfringens MLG7307 [24], 0.78 mg/L; with C. perfringens MLG7309 [25], 0.78 mg/L; in the test on C. perfringens MLG7009 [26] it was 1.56 mg/L; with C. perfringens MLG5719 [28] it was 1.56 mg/L; against C. perfringens MLG5806 [30], 1.56 mg/L. Besides, the values for the MIC in the test on C. perfringens MLG0418 [33] and with C. perfringens MLG7814 [38] were 1.56 mg/L and 3.12 mg/L, respectively. Moreover, the Inhibition halos stood at 18 mm in the test with C. perfringens MLG4201 [4]; 19 mm in the test with C. perfringens MLG5719 [6]; 25 mm in the test with C. perfringens MLG4206 [8]; 20 mm in the test with C. perfringens MLG7307 [9]; 17 mm in the test on C. perfringens MLG7309 [13]; 23 mm in the test on C. perfringens MLG0418 [17]. Further, the Inhibition halos amounted to 17 mm with C. perfringens MLG0712 [18]; 24 mm in the test on C. perfringens MLG2203 [21]; 19 mm in the test with C. perfringens MLG5806 [23]; 20 mm in the test on C. perfringens MLG2314 [27]; 16 mm in the test with C. perfringens MLG1108 [29]; 19 mm in the test on C. perfringens MLG1819 [31]. Besides, the Inhibition halos amounted to 20 mm with C. perfringens MLG1619 [32]; 20 mm in the test on C. perfringens MLG7009 [34]; 23 mm in the test on C. perfringens MLG6907 [35]; 19 mm in the test with C. perfringens MLG3406 [36]; 21 mm in the test with C. perfringens MLG2919 [37]; 27 mm in the test with C. perfringens MLG3111 [39]. Moreover, the Inhibition halos in the test on C. perfringens MLG0618 [40] stood at 14 mm; in the test on C. perfringens MLG7814 [41], 23 mm.

As usually defined, the MIC is the lowest concentration found to suppress growth. High values mean a less susceptible organism, low ones a more susceptible organism.
